Data reported in publication PMC6233161, “The anti-tumor diterpene oridonin is a direct inhibitor of Nucleolin in cancer cells” (Scientific Reports, 2018).

Key:
Nucleolin = molecular target: T1, Nucleolin (Homo sapiens, UniProt P19338); assay: SPR (Biacore […], immobilized Nucleolin on CM5 chip); supported by CETSA, DARTS and affinity pull-down; assay type: binding
T1 construct: gene NCL; Recombinant human Nucleolin

HSP70 = molecular target: T2, HSP70 (Homo sapiens, UniProt P0DMV8); assay: DARTS in Jurkat lysate and living cells at […] (MS and western blot); pull-down with immobilized oridonin; assay type: cell-based
T2 construct: gene HSPA1A
T2 sequence (P0DMV8 2-641): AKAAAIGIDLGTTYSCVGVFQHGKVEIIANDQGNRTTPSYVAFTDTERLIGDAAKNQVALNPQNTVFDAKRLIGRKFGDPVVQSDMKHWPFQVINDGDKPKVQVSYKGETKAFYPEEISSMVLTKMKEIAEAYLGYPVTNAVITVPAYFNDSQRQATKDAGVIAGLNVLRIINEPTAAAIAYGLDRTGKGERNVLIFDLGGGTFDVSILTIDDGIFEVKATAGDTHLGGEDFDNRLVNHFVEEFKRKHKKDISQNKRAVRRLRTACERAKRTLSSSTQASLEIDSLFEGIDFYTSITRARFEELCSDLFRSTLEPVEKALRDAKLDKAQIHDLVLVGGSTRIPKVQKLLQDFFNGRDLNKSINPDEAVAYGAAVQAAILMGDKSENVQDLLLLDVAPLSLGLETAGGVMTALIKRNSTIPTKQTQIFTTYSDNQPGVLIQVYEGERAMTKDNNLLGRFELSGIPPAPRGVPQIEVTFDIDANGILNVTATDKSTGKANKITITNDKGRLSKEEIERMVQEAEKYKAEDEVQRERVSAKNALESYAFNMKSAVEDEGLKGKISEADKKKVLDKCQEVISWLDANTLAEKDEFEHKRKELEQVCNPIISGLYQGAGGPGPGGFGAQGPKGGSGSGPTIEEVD

T1 sequence (P19338 2-710): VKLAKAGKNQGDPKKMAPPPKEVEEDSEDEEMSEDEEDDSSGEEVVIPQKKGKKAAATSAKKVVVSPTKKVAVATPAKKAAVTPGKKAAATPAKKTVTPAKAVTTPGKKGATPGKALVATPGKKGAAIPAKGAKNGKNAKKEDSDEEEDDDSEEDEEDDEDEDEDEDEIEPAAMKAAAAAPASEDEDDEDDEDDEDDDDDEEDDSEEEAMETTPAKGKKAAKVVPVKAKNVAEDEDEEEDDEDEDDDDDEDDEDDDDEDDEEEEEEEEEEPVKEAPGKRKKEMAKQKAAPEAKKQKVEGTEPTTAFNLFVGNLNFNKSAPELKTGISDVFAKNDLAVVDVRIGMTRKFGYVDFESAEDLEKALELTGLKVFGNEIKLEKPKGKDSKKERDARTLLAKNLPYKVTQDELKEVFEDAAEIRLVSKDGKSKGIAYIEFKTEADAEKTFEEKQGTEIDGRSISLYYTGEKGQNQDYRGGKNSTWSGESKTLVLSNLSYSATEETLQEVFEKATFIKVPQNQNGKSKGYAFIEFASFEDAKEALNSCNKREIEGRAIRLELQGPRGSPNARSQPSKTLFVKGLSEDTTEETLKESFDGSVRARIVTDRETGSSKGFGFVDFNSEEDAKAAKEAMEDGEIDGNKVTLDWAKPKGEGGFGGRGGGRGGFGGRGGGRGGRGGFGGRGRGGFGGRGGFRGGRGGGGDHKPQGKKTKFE

C=C1C(=O)[C@]23[C@H](O)[C@H]1CC[C@H]2[C@@]12CO[C@]3(O)[C@@H](O)[C@@H]1C(C)(C)CC[C@@H]2O [oridonin]
Kd (Nucleolin): 3.8 ± 1.2 nM | DARTS in Jurkat lysate and living cells at 5 μM (MS and western blot); pull-down (HSP70): only three proteins emerged as putative oridonin targets: HSP70, HSP90, and Nucleolin
